Several values for one entry are separate records, joined by “and”; a condition that tells them apart may be missing. Identical values can stand only once. Entries after “also recorded” stand apart in the source; their conditions may differ.
Columns and labels:
[1] = In-life observations: body weight, gross findings before and at necropsy; format: in vivo, Male Fischer 344/N rats; details: individual animals
Protocol: Doses were determined with pilot experiments. […] Serum was collected for clinical chemistry.

liver = experiment: Liver histopathology (H&E sections of left liver lobe, severity graded) after a single dose; details: for Primary site of livery injury: rat, single administration
Protocol: The animals were acclimated for 14 days and observed for absence of disease.
Doses were determined with pilot experiments. For each chemical, doses that elicited a sub-toxic ('low'), a moderately toxic ('medium') or a overtly toxic ('high') response 24 hours after treatment were selected. […] For each compound, control animal groups were treated with vehicle alone. All animals were fasted for 12-18 hours prior to exposure. Groups of four to six animals were dosed between 8:30 and 9:30 a.m.; thereafter, feed was provided ad libitum. After 6, 24 or 48 hours of treatment, animals were anesthetized by isoflurane anesthesia. Whole blood was collected via retro-orbital plexus for hematology and gene expression analysis. Serum was collected for clinical chemistry. The animals were euthanized while under anesthesia by cervical dislocation and necropsied within 4 minutes of sacrifice. The left liver lobe was promptly removed and two defined cross sections were placed in 10% neutral buffered formalin for subsequent histopathology.
The cross sections that were fixed by immersion in 10% neutral buffered formalin (see 'In-life studies' section above) were transferred to histology grade alcohol for 18-24 hours after necropsy. Tissues were then processed, embedded in paraffin, sectioned at 5 microns, and stained with hematoxylin and eosin. A pathologist completed the initial microscopic evaluation of each liver sample for a given compound. […] An independent pathology quality assessment review was performed by a second pathologist on the initial histopathological findings.

[2] = 15 mg/kg, gavage, corn oil, 6 hours
[3] = 15 mg/kg, gavage, corn oil, 24 hours, listed as 1, 4-Dichlorobenzene
[4] = 15 mg/kg, gavage, corn oil, 48 hours
[5] = 150 mg/kg, gavage, corn oil, 6 hours
[6] = 150 mg/kg, gavage, corn oil, 24 hours, listed as 1, 4-Dichlorobenzene
[7] = 150 mg/kg, gavage, corn oil, 48 hours
[8] = 1500 mg/kg, gavage, corn oil, 24 hours, listed as 1, 4-Dichlorobenzene
[9] = 1500 mg/kg, gavage, corn oil, 48 hours
[10] = 25 mg/kg, gavage, corn oil, 6 hours
[11] = 25 mg/kg, gavage, corn oil, 24 hours
[12] = 25 mg/kg, gavage, corn oil, 48 hours
[13] = 75 mg/kg, Gavage, Corn Oil, 48 hours
[14] = 75 mg/kg, gavage, corn oil, 6 hours
[15] = 75 mg/kg, gavage, corn oil, 24 hours
[16] = 250 mg/kg, Gavage, Corn Oil, 48 hours
[17] = 250 mg/kg, gavage, corn oil, 6 hours
[18] = 250 mg/kg, gavage, corn oil, 24 hours
[19] = medium dose, 6 hour, six animals

Clc1ccc(Cl)cc1 [1,4-Dichlorobenzene]
Clin/Ob Prior to Necropsy [1, 2]: Normal | Gross Findings [1, 2]: No Gross Findings | Clin/Ob Prior to Necropsy ([1]; 15 mg/kg, gavage, corn oil, 24 hours): Normal | Final Body Wt. [1, 3]: 232.30 g and 225.40 g and 254.10 g and 277.50 g | Gross Findings [1, 3]: Liver median lobe with dark area 3x5 mm; also recorded: No Gross Findings | Clin/Ob Prior to Necropsy [1, 4]: Normal | Gross Findings [1, 4]: No Gross Findings | Final Body Wt. ([1]; 15 mg/kg, gavage, corn oil, 48 hours, listed as 1, 4-Dichlorobenzene): 239.30 g and 240.50 g and 258.30 g and 262.70 g | Clin/Ob Prior to Necropsy [1, 5]: Normal | Gross Findings [1, 5]: No Gross Findings | Clin/Ob Prior to Necropsy ([1]; 150 mg/kg, gavage, corn oil, 24 hours): Normal | Final Body Wt. [1, 6]: 243.60 g and 238.40 g and 164.30 g and 262.50 g | Gross Findings [1, 6]: Liver median lobe mottled; Bladder calculi; also recorded: No Gross Findings | Clin/Ob Prior to Necropsy [1, 7]: Normal | Gross Findings [1, 7]: No Gross Findings | Final Body Wt. ([1]; 150 mg/kg, gavage, corn oil, 48 hours, listed as 1, 4-Dichlorobenzene): 234.10 g and 237.30 g and 264.20 g and 251.10 g | Clin/Ob Prior to Necropsy ([1]; 1500 mg/kg, gavage, corn oil, 6 hours): Normal | Gross Findings ([1]; 1500 mg/kg, gavage, corn oil, 6 hours, listed as 1, 4-Dichlorobenzene): Liver left and median lobes mottled; also recorded: No Gross Findings | Clin/Ob Prior to Necropsy ([1]; 1500 mg/kg, gavage, corn oil, 24 hours): Normal | Final Body Wt. [1, 8]: 242.10 g and 248.00 g and 261.40 g and 259.70 g | Gross Findings [1, 8]: No Gross Findings; also recorded: Liver median lobe mottled on dorsal side | Clin/Ob Prior to Necropsy [1, 9]: Normal | Gross Findings [1, 9]: No Gross Findings | Final Body Wt. ([1]; 1500 mg/kg, gavage, corn oil, 48 hours, listed as 1, 4-Dichlorobenzene): 237.50 g and 238.20 g and 259.90 g and 253.70 g

Brc1ccccc1 [Bromobenzene]
Clin/Ob Prior to Necropsy [1, 10]: Normal | Gross Findings [1, 10]: No Gross Findings | Clin/Ob Prior to Necropsy [1, 11]: Normal | Final Body Wt. [1, 11]: 249.50 g and 261.40 g and 229.00 g and 231.60 g | Gross Findings [1, 11]: No Gross Findings | Clin/Ob Prior to Necropsy [1, 12]: Normal | Final Body Wt. [1, 12]: 244.40 g and 235.00 g and 246.60 g and 231.60 g | Gross Findings [1, 12]: No Gross Findings | Clin/Ob Prior to Necropsy [1, 13]: Normal | Final Body Wt. [1, 13]: 236.60 g and 225.70 g and 236.40 g and 237.30 g | Gross Findings [1, 13]: No Gross Findings | Clin/Ob Prior to Necropsy [1, 14]: Normal | Gross Findings [1, 14]: No Gross Findings; also recorded: Liver left lobe mottled | Clin/Ob Prior to Necropsy [1, 15]: Normal | Final Body Wt. [1, 15]: 242.50 g and 258.00 g and 249.00 g and 228.00 g | Gross Findings [1, 15]: No Gross Findings | Clin/Ob Prior to Necropsy [1, 16]: Normal | Final Body Wt. [1, 16]: 203.70 g and 220.50 g and 212.60 g and 210.30 g | Gross Findings [1, 16]: Liver left lobe firm with mottled edges, median lobe firm with mottled edges; also recorded: Liver left lobe mild roughening of surface, median lobe mild roughening of surface | Clin/Ob Prior to Necropsy [1, 17]: Normal | Gross Findings [1, 17]: No Gross Findings; also recorded: Liver left lobe and median lobe mottled | Clin/Ob Prior to Necropsy [1, 18]: Ungroomed Appearance | Final Body Wt. [1, 18]: 214.60 g and 204.50 g and 218.70 g and 200.70 g | Gross Findings [1, 18]: Liver left lobe dark, mottled, and firm (anterior end darker), median lobe dark, mottled, and firm; also recorded: Liver left lobe mottled with dark edges, median lobe dark and mottled (left side darker) | Primary site of livery injury (liver): Centrilobular

c1cc[n+]2c(c1)-c1cccc[n+]1CC2 [Diquat Dibromide]
Clin/Ob Prior to Necropsy ([1]; 5 mg/kg, I.P., PBS, 6 hours): normal | Gross Findings ([1]; 5 mg/kg, I.P., PBS, 6 hours): No Gross Findings; also recorded: Liver: median lobe dark area ventral surface 3x5mm; also recorded: Liver: left lobe accentuated centrilobular pattern | Clin/Ob Prior to Necropsy ([1]; 5 mg/kg, I.P., PBS, 24 hours): normal | Final Body Wt. ([1]; 5 mg/kg, I.P., PBS, 24 hours): 211.10 g and 208.50 g and 245.30 g and 233.00 g and 258.10 g and 250.90 g | Gross Findings ([1]; 5 mg/kg, I.P., PBS, 24 hours): No Gross Findings; also recorded: Liver: median lobe HDN; also recorded: Liver: left lobe mottled, median lobe mottled | Clin/Ob Prior to Necropsy ([1]; 5 mg/kg, I.P., PBS, 48 hours): normal; also recorded: Piloerection | Final Body Wt. ([1]; 5 mg/kg, I.P., PBS, 48 hours): 224.20 g and 218.20 g and 231.10 g and 225.90 g and 257.30 g and 249.20 g | Gross Findings ([1]; 5 mg/kg, I.P., PBS, 48 hours): No Gross Findings; also recorded: Liver: left lobe mottled, median lobe mottled | Clin/Ob Prior to Necropsy ([1]; 10 mg/kg, I.P., PBS, 6 hours): normal | Gross Findings ([1]; 10 mg/kg, I.P., PBS, 6 hours): Liver: left lobe mottled, median lobe pale patcity area 3x5mm; also recorded: Liver: left lobe dark focus 1x1mm, median lobe mottled; also recorded: No Gross Findings | Clin/Ob Prior to Necropsy ([1]; 10 mg/kg, I.P., PBS, 24 hours): normal | Final Body Wt. ([1]; 10 mg/kg, I.P., PBS, 24 hours): 206.10 g and 210.20 g and 242.10 g and 224.30 g and 236.70 g and 244.40 g | Gross Findings ([1]; 10 mg/kg, I.P., PBS, 24 hours): No Gross Findings; also recorded: Liver: left lobe mottled, median lobe mottled; also recorded: Liver: median lobe dorsal surface mottled; also recorded: Liver: median lobe HDN | Clin/Ob Prior to Necropsy ([1]; 10 mg/kg, I.P., PBS, 48 hours): normal | Final Body Wt. ([1]; 10 mg/kg, I.P., PBS, 48 hours): 220.20 g and 230.20 g and 218.20 g and 217.30 g and 243.20 g and 249.30 g | Gross Findings ([1]; 10 mg/kg, I.P., PBS, 48 hours): No Gross Findings; also recorded: Liver: left lobe small, median lobe small; also recorded: Liver: left lobe mottled, median lobe mottled | Clin/Ob Prior to Necropsy ([1]; 20 mg/kg, I.P., PBS, 6 hours): normal | Gross Findings ([1]; 20 mg/kg, I.P., PBS, 6 hours): Liver: left lobe mottled dark edge, median lobe mottled; also recorded: No Gross Findings | Clin/Ob Prior to Necropsy ([1]; 20 mg/kg, I.P., PBS, 24 hours): normal; also recorded: Piloerection | Final Body Wt. ([1]; 20 mg/kg, I.P., PBS, 24 hours): 207.30 g and 222.70 g and 236.30 g and 245.70 g and 242.80 g and 235.30 g | Gross Findings ([1]; 20 mg/kg, I.P., PBS, 24 hours): Liver: left lobe mottled/pale, median lobe mottled/pale; also recorded: No Gross Findings; also recorded: Liver: median lobe dorsal surface mottled; also recorded: Liver: left lobe mottled/pale/slightly enlarged, median lobe mottled/pale/ slightly enlarged | Clin/Ob Prior to Necropsy ([1]; 20 mg/kg, I.P., PBS, 48 hours): normal; also recorded: Piloerection | Final Body Wt. ([1]; 20 mg/kg, I.P., PBS, 48 hours): 227.20 g and 217.30 g and 211.20 g and 231.70 g and 252.00 g and 265.20 g | Gross Findings ([1]; 20 mg/kg, I.P., PBS, 48 hours): No Gross Findings; also recorded: Liver: left lobe mottled/pale, median lobe pale; also recorded: Liver: left lobe mottled/pale, median lobe mottled/pale | Clin/Ob Prior to Necropsy ([1]; 25 mg/kg, I.P., PBS, 6 hours): normal; also recorded: Piloerection; also recorded: Comatose | Gross Findings ([1]; 25 mg/kg, I.P., PBS, 6 hours): No Gross Findings; also recorded: Liver: left lobe mottled dark, median lobe mottled dark | Clin/Ob Prior to Necropsy ([1]; 25 mg/kg, I.P., PBS, 24 hours): Piloerection; also recorded: normal; also recorded: Ungroomed Appearance | Final Body Wt. ([1]; 25 mg/kg, I.P., PBS, 24 hours): 240.50 g and 211.50 g and 223.20 g and 243.30 g and 234.60 g and 233.90 g | Gross Findings ([1]; 25 mg/kg, I.P., PBS, 24 hours): No Gross Findings; also recorded: Liver: left lobe pale, one focal tan area on dorsal side 3x3mm, tan focal area on ventral side 7x5mm; median lobe pale and mottled; also recorded: Liver: left lobe dark edge; also recorded: Liver: left lobe mottled/pale/ rough surface minimal, median lobe mottled/pale/ rough surface minimal | Clin/Ob Prior to Necropsy ([1]; 25 mg/kg, I.P., PBS, 48 hours): normal; also recorded: Ungroomed Appearance; also recorded: Piloerection | Final Body Wt. ([1]; 25 mg/kg, I.P., PBS, 48 hours): 205.20 g and 208.20 g and 226.90 g and 212.10 g and 236.10 g and 244.10 g | Gross Findings ([1]; 25 mg/kg, I.P., PBS, 48 hours): Liver: left lobe pale/small, median lobe pale/small; also recorded: Liver: left lobe pale/mottled/ rough surface slight, median lobe pale/mottled/ rough surface slight

c1cc[n+]2c(c1)-c1cccc[n+]1CC2 [Diquat]
extent of hepatocellular necrosis, amount of inflammatory cell infiltrates and/or indications of hepatocellular repair (mitosis) across animals (liver; high dose, 48 hour): variability | animals with minimal levels of hepatocellular necrosis (liver; [19]): one | animals with no apparent histopathological observations (liver; [19]): Three of the six | animals with noted levels of glycogen depletion (liver; [19]): two | Primary site of livery injury (liver): Mid-zonal to centrilobular

Reference: PMC2481421, “Gene expression response in target organ and whole blood varies as a function of target organ injury phenotype” (Genome Biology, 2008)
